# Measured values published in patent publication US20020009782A1, “Heparin and heparan sulfate derived oligosaccharides and a method for their manufacture” (priority 1999, published 2002).
# How the values were obtained:
# [1] = Measurement of unsaturated bond formation (lyase activity) using absorbance at 232 nm; assay type: biochemical; details: 0.2% heparin, measured every 10 minutes for 1 hour, FIG. 1
# Description: Measurement of Unsaturated Bond Formation Using Absorbance at 232 nm:
# Reactions were prepared in 1 ml quartz cuvettes. For heparinase I [Lavobacterium heparinum, Sigma, Cat. No. H2519], 3 units enzyme were added to a reaction mixture A (18 mM Tris buffer pH 7.5, 45 mM NaCl, 4 mM CaCl2, 0.01% BSA) containing 0.2% heparin. For recombinant heparanase (expressed in insect cells, see, U.S. patent application Ser. Nos. 08/922,170; 09/071,618; 09/109,386; 09/258,892 and 09/260,038 and in PCT/US98/17954 and PCT/US98/09256, all of which are incorporated herein by reference), 5 mg enzyme were added to a reaction mixture B (20 mM phosphate citrate buffer pH 5.4, 1 mM CaCl2, 1 mM NaCl and 0.01% BSA) containing 0.2% heparin. Absorbance at 232 nm was measured in a Cary 100 (Varian) spectrophotometer every 10 minutes for a period of 1 hour.
# Partially purified recombinant human heparanase expressed in insect cells was examined to determine whether it is a lyase or hydrolase. A bacterial heparinase I which is a lyase was used as a control. The formation of an unsaturated bond by lyase activity as measured by 232 nm absorbance was performed as described under experimental procedures above.
# B16 melanoma = details: lung metastases induced by B16 melanoma, experimental animals; cited from earlier work
# [2] = tested on: mammary adenocarcinoma cells; details: lung metastases induced by mammary adenocarcinoma cells, experimental animals; cited from earlier work
# Lewis lung carcinoma = details: lung metastases induced by Lewis lung carcinoma, experimental animals; cited from earlier work
substance,measurement,setting,value
heparinase I,"lyase activity: 232 nm absorbance (formation of Δ4,5 unsaturated bond of heparin)",[1],linear increase
laminarin sulfate,reduction of the incidence of lung metastases,B16 melanoma,> 90%
same,reduction of the incidence of lung metastases,[2],> 90%
same,reduction of the incidence of lung metastases,Lewis lung carcinoma,> 90%
